Measurements as given in paper PMC11178787, “Development of a natural product optimization strategy for inhibitors against MraY, a promising antibacterial target” (Nature Communications, 2024).
In brackets after ≈: the same amount, converted by molar mass. Read-outs that look alike come from different tables or passages of the source.

Assays:
Enterococcus faecalis 29 = test system: T1, Enterococcus faecalis 29; test: microbe, parasite or virus in culture; design: CLSI broth microdilution MIC in MHB-II; settings: Enterococcus faecalis, 29, 18 h, read-out: MIC
T1 construct: 29
Description: (§1) MICs were determined by a microdilution broth method as recommended by the CLSI with MHB-II. For MICs of stable analogues, a 2-fold dilution of each compound was prepared in DMSO at 100-fold of the final concentration. The strains were inoculated with 5 × 10^5 cfu/mL in 96-well plates (each 100 μL/well), and 1 μL of DMSO solutions of the samples were added (contained less than 1% DMSO). The plates were incubated at 37 °C for 18 h and then MICs were determined. MICs of stable analogues in Table 1 were the highest value in three trials. MICs in Supplementary Table 1 were determined in one trial.

Enterococcus faecium 2 = test: microbe, parasite or virus in culture; design: CLSI broth microdilution MIC in MHB-II; settings: Enterococcus faecium, 2, 18 h, read-out: MIC
Description: as §1

Enterococcus faecium 4 = test: microbe, parasite or virus in culture; design: CLSI broth microdilution MIC in MHB-II; settings: Enterococcus faecium, 4, 18 h, read-out: MIC
Description: as §1

Enterococcus faecalis 21 = test system: T2, Enterococcus faecalis 21; test: microbe, parasite or virus in culture; design: CLSI broth microdilution MIC in MHB-II; settings: Enterococcus faecalis, 21, 18 h, read-out: MIC
T2 construct: 21
Description: as §1

Enterococcus faecium 10 = test system: T3, Enterococcus faecium 10; test: microbe, parasite or virus in culture; design: CLSI broth microdilution MIC in MHB-II; settings: Enterococcus faecium, 10, 18 h, read-out: MIC
T3 construct: 10
Description: as §1

[1] = test system: T4, Staphylococcus aureus #2935; test: microbe, parasite or virus in culture; design: CLSI broth microdilution MIC in MHB-II; settings: Staphylococcus aureus, 18 h, read-out: MIC
T4 construct: #2935
Description: as §1

Enterococcus faecium 8 = test: microbe, parasite or virus in culture; design: CLSI broth microdilution MIC in MHB-II; settings: Enterococcus faecium, 8, 18 h, read-out: MIC
Description: as §1

Enterococcus faecium 5 = test: microbe, parasite or virus in culture; design: CLSI broth microdilution MIC in MHB-II; settings: Enterococcus faecium, 5, 18 h, read-out: MIC
Description: as §1

Enterococcus faecalis 27 = test system: T5, Enterococcus faecalis 27; test: microbe, parasite or virus in culture; design: CLSI broth microdilution MIC in MHB-II; settings: Enterococcus faecalis, 27, 18 h, read-out: MIC
T5 construct: 27
Description: as §1

Enterococcus faecium 1 = test: microbe, parasite or virus in culture; design: CLSI broth microdilution MIC in MHB-II; settings: Enterococcus faecium, 1, 18 h, read-out: MIC
Description: as §1

Enterococcus faecium 11 = test system: T6, Enterococcus faecium 11; test: microbe, parasite or virus in culture; design: CLSI broth microdilution MIC in MHB-II; settings: Enterococcus faecium, 11, 18 h, read-out: MIC
T6 construct: 11
Description: as §1

Enterococcus faecium 9 = test: microbe, parasite or virus in culture; design: CLSI broth microdilution MIC in MHB-II; settings: Enterococcus faecium, 9, 18 h, read-out: MIC
Description: as §1

Enterococcus faecalis 26 = test system: T7, Enterococcus faecalis 26; test: microbe, parasite or virus in culture; design: CLSI broth microdilution MIC in MHB-II; settings: Enterococcus faecalis, 26, 18 h, read-out: MIC
T7 construct: 26
Description: as §1

Enterococcus faecalis 22 = test system: T8, Enterococcus faecalis 22; test: microbe, parasite or virus in culture; design: CLSI broth microdilution MIC in MHB-II; settings: Enterococcus faecalis, 22, 18 h, read-out: MIC
T8 construct: 22
Description: as §1

S. aureus ATCC 29213 = test system: T9, S. aureus ATCC 29213; test: microbe, parasite or virus in culture; design: CLSI broth microdilution MIC in MHB-II, single trial; settings: Staphylococcus aureus, ATCC29213, 18 h
T9 construct: ATCC 29213
Description: as §1

[2] = test system: T10, Staphylococcus aureus MRSA JE2; test: microbe, parasite or virus in culture; design: CLSI broth microdilution MIC in MHB-II, single trial; settings: 18 h
T10 construct: JE2 (MRSA)
Description: as §1

[3] = test system: T11, E. faecium(VRE) ATCC 51559; test: microbe, parasite or virus in culture; design: CLSI broth microdilution MIC in MHB-II, single trial; settings: Enterococcus faecium, 18 h
T11 construct: ATCC 51559 (VRE)
Description: as §1

[4] = test system: T12, E. faecium(VRE) ATCC 51858; test: microbe, parasite or virus in culture; design: CLSI broth microdilution MIC in MHB-II, single trial; settings: Enterococcus faecium, 18 h
T12 construct: ATCC 51858 (VRE)
Description: as §1

E. faecium ATCC 35667 = test system: T13, E. faecium ATCC 35667; test: microbe, parasite or virus in culture; design: CLSI broth microdilution MIC in MHB-II, single trial; settings: Enterococcus faecium, ATCC35667, 18 h
T13 construct: ATCC 35667
Description: as §1

[5] = test system: T14, E. faecalis(VRE) ATCC 51299; test: microbe, parasite or virus in culture; design: CLSI broth microdilution MIC in MHB-II, single trial; settings: Enterococcus faecalis, 18 h
T14 construct: ATCC 51299 (VRE)
Description: as §1

MraYSA (S. aureus MraY) = MraYSA (S. aureus MraY) (Staphylococcus aureus, UniProt Q2FZ93); test: fluorescence assay of dansylated lipid I formation; format: biochemical
Sequence of MraYSA (S. aureus MraY) (Q2FZ93 whole entry): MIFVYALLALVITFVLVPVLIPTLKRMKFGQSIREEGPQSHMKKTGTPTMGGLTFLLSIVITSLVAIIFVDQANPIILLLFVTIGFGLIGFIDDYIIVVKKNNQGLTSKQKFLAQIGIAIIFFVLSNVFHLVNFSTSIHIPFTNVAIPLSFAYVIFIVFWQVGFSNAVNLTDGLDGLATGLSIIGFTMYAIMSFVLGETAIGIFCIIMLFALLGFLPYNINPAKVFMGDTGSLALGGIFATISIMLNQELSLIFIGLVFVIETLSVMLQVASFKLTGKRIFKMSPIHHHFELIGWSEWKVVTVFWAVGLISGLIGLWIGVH

in vitro = test: in vitro; design: WST-8 cell viability assay in HepG2 cells; settings: human, hepg2 cells; read-out: IC50
Description: Cells were regularly passed to maintain exponential growth. HepG2 cells were sowed by 1.0 × 10^4 cells for each well in 96-well plate and cultured at 37 °C under 5% CO2 in air for 24 h. The cells were treated with a solution of test compounds in DMSO at various concentration and incubated at 37 °C under 5% CO2 in air for 24 h. After that, the WST-8 (Dojindo) cell proliferation assay was used. Cell viability was indicated as a percentage of the negative control (cells treated with DMSO only) and that value was fixed at 100%.

| Compound | MIC (Enterococcus faecalis 29) [µg/mL] | MIC (Enterococcus faecium 2) [µg/mL] | MIC (Enterococcus faecium 4) [µg/mL] | MIC (Enterococcus faecalis 21) [µg/mL] | MIC (Enterococcus faecium 10) [µg/mL] | MIC [1] [µg/mL] | MIC (Enterococcus faecium 8) [µg/mL] | MIC (Enterococcus faecium 5) [µg/mL] | MIC (Enterococcus faecalis 27) [µg/mL] | MIC (Enterococcus faecium 1) [µg/mL] | MIC (Enterococcus faecium 11) [µg/mL] | MIC (Enterococcus faecium 9) [µg/mL] | MIC (Enterococcus faecalis 26) [µg/mL] | MIC (Enterococcus faecalis 22) [µg/mL] | IC50 (MraYSA (S. aureus MraY)) [µM] | CC50 at 24 h (in vitro) [µM] | also measured |
| --- | --- | --- | --- | --- | --- | --- | --- | --- | --- | --- | --- | --- | --- | --- | --- | --- | --- |
| CCCCCCCCCCCCCCCC(=O)N[C@@H](CCCCN)C(=O)NCc1cccc(CN[C@H](C(=O)O)[C@H](O[C@@H]2O[C@H](CN)[C@@H](O)[C@H]2O)[C@H]2O[C@@H](n3ccc(=O)[nH]c3=O)[C@H](O)[C@@H]2O)c1 [compound 2, analogue 2] | 0.13 (≈ 0.139 µM) | 1 (≈ 1.07 µM) | 0.5 (≈ 0.535 µM) | 0.13 (≈ 0.139 µM) | 1 (≈ 1.07 µM) | 1 (≈ 1.07 µM) | 0.5 (≈ 0.535 µM) | 1 (≈ 1.07 µM) | 0.25 (≈ 0.268 µM) | 1 (≈ 1.07 µM) | 1 (≈ 1.07 µM) | 0.5 (≈ 0.535 µM) | 0.13 (≈ 0.139 µM) | 0.13 (≈ 0.139 µM) | 0.0059 | 16 | MIC (S. aureus ATCC 29213; read-out: 2 MIC): 1 µg/mL (≈ 1.07 µM); MIC ([2]; read-out: 2 MIC): 1 µg/mL (≈ 1.07 µM); MIC ([3]; read-out: 2 MIC): 0.5 µg/mL (≈ 0.535 µM); MIC ([4]; read-out: 2 MIC): 2 µg/mL (≈ 2.14 µM); MIC (E. faecium ATCC 35667; read-out: 2 MIC): 0.5 µg/mL (≈ 0.535 µM); MIC ([5]; read-out: 2 MIC): 0.5 µg/mL (≈ 0.535 µM) |
| CCCCCCCCCCCCCCCC(=O)N[C@@H](CCCNC(=N)N)C(=O)NCc1cccc(CN[C@H](C(=O)O)[C@H](O[C@@H]2O[C@H](CN)[C@@H](O)[C@H]2O)[C@H]2O[C@@H](n3ccc(=O)[nH]c3=O)[C@H](O)[C@@H]2O)c1 [compound 4, analogue 4] | < 0.06 | 2 (≈ 2.08 µM) | 0.5 (≈ 0.52 µM) | 0.13 (≈ 0.135 µM) | 1 (≈ 1.04 µM) | 2 (≈ 2.08 µM) | 0.5 (≈ 0.52 µM) | 1 (≈ 1.04 µM) | < 0.06 | 1 (≈ 1.04 µM) | 1 (≈ 1.04 µM) | 0.5 (≈ 0.52 µM) | 0.25 (≈ 0.26 µM) | 0.13 (≈ 0.135 µM) | 0.005 | 19 | MIC (S. aureus ATCC 29213; read-out: 4 MIC): 1 µg/mL (≈ 1.04 µM); MIC ([2]; read-out: 4 MIC): 2 µg/mL (≈ 2.08 µM); MIC ([3]; read-out: 4 MIC): 1 µg/mL (≈ 1.04 µM); MIC ([4]; read-out: 4 MIC): 2 µg/mL (≈ 2.08 µM); MIC (E. faecium ATCC 35667; read-out: 4 MIC): 0.5 µg/mL (≈ 0.52 µM); MIC ([5]; read-out: 4 MIC): 0.25 µg/mL (≈ 0.26 µM) |
| CCCCCCCCCCCCCCCC(=O)N[C@@H](CCCCN)C(=O)Nc1ccc(CN[C@H](C(=O)O)[C@H](O[C@@H]2O[C@H](CN)[C@@H](O)[C@H]2O)[C@H]2O[C@@H](n3ccc(=O)[nH]c3=O)[C@H](O)[C@@H]2O)cc1 [compound 5, analogue 5] | < 0.06 | 0.5 (≈ 0.543 µM) | 0.25 (≈ 0.272 µM) | 0.5 (≈ 0.543 µM) | 0.5 (≈ 0.543 µM) | 1 (≈ 1.09 µM) | 0.25 (≈ 0.272 µM) | 0.5 (≈ 0.543 µM) | 0.25 (≈ 0.272 µM) | 1 (≈ 1.09 µM) | 0.5 (≈ 0.543 µM) | 0.25 (≈ 0.272 µM) | 0.13 (≈ 0.141 µM) | 0.13 (≈ 0.141 µM) | 0.0031 | 22 | MIC (S. aureus ATCC 29213; read-out: 5 MIC): 0.5 µg/mL (≈ 0.543 µM); MIC ([2]; read-out: 5 MIC): 1 µg/mL (≈ 1.09 µM); MIC ([3]; read-out: 5 MIC): 0.25 µg/mL (≈ 0.272 µM); MIC ([4]; read-out: 5 MIC): 1 µg/mL (≈ 1.09 µM); MIC (E. faecium ATCC 35667; read-out: 5 MIC): 0.25 µg/mL (≈ 0.272 µM); MIC ([5]; read-out: 5 MIC): 0.25 µg/mL (≈ 0.272 µM) |
| CCCCCCCCCCCCCCCC(=O)N[C@@H](CCCCN)C(=O)Nc1cccc(CN[C@H](C(=O)O)[C@H](O[C@@H]2O[C@H](CN)[C@@H](O)[C@H]2O)[C@H]2O[C@@H](n3ccc(=O)[nH]c3=O)[C@H](O)[C@@H]2O)c1 [compound 6, analogue 6] | 0.25 (≈ 0.272 µM) | 1 (≈ 1.09 µM) | 0.5 (≈ 0.543 µM) | 0.25 (≈ 0.272 µM) | 1 (≈ 1.09 µM) | 1 (≈ 1.09 µM) | 0.5 (≈ 0.543 µM) | 1 (≈ 1.09 µM) | 0.5 (≈ 0.543 µM) | 1 (≈ 1.09 µM) | 1 (≈ 1.09 µM) | 1 (≈ 1.09 µM) | 0.25 (≈ 0.272 µM) | 0.5 (≈ 0.543 µM) | 0.0037 | 16 | MIC (S. aureus ATCC 29213; read-out: 6 MIC): 1 µg/mL (≈ 1.09 µM); MIC ([2]; read-out: 6 MIC): 1 µg/mL (≈ 1.09 µM); MIC ([3]; read-out: 6 MIC): 1 µg/mL (≈ 1.09 µM); MIC ([4]; read-out: 6 MIC): 2 µg/mL (≈ 2.17 µM); MIC (E. faecium ATCC 35667; read-out: 6 MIC): 0.5 µg/mL (≈ 0.543 µM); MIC ([5]; read-out: 6 MIC): 0.5 µg/mL (≈ 0.543 µM) |
